Reference: patent US8314123B2, “5, 6, or 7-substituted -3-(hetero) arylisoquinolinamine derivatives and therapeutic use thereof” (Rexahn Pharmaceuticals, Inc., priority 2006, dated 2012)

tested on: PANC-1 (pancreas); experiment: In vitro cell proliferation assay (SRB), PANC-1; assay type: cell-based; conditions: Homo sapiens, SRB method, 96 hours, read-out: Inhibition of cell growth (IC50, μM) PANC-1
Method: (§1) Cancer cell lines to determine the effect of 5, 6, or 7-substituted-3-(hetero)arylisoquinolinamine compounds were obtained from the following sources: Human MDA-MB-231 (breast), PC3 (prostate), HCT-15 (colon), HCT116 (colon), OVCAR-3 (ovary), Caki-1 (kidney), PANC-1 (pancreas), SNB-19 (glioblastoma) and SK-MEL-28 (melanoma) from the American Type Culture Collection (ATCC) (Manassas, Va.). PC3, OVCAR-3, SK-MEL-28 and SNB-19 were grown in RPMI1640 medium (Invitrogen, Carlsbad, Calif.) supplemented with 10% fetal bovine serum (“FBS”), 1 mM sodium pyruvate, 10 mM HEPES and 100 U/ml penicillin and 100 μg/ml streptomycin (“P/S”). MDA-MB-231, Caki-1, HCT-15 (colon) and PANC-1 cells were maintained in Dulbecco's modified Eagle's medium (“DMEM”, Invitrogen) supplemented with 10% FBS, P/S and 10 mM HEPES. HCT116 cells were maintained in DMEM supplemented with 10% FBS, P/S and 10 mM HEPES for in vitro cell proliferation assay and in RPMI1640 medium supplemented with 10% FBS, 1 mM sodium pyruvate, 10 mM HEPES and P/S for in vitro cell cycle analysis. All cells were incubated at 37° C. under humidified 5% CO2.
(§2) The growth inhibition of the 5, 6, or 7-substituted-3-(hetero)arylisoquinolinamine derivatives against a variety of human tumor cells was evaluated to study the relative importance of particular substituent groups on the compounds. The 5, 6, or 7-substituted-3-(hetero)arylisoquinolinamine derivatives, prepared as described above, were tested with DMSO as a control.
(§3) The growth inhibition assay of representative 5, 6, or 7-substituted-3-(hetero)arylisoquinolinamine derivatives against human tumor cell lines was performed using the Sulforhodamine B (“SRB”) method (Skehan et al., J. National Cancer Institute, 82: 1107-1112 (1990)). Briefly, exponentially growing tumor cells were seeded into a 96-well plate at a density of 2-3×10^3 cells/well and treated with 5, 6, or 7-substituted-3-(hetero)arylisoquinolinamine compounds the next day. Triplicate wells were used for each treatment. The cells were incubated with the various compounds for 96 hours at 37° C. in a humidified 5% CO2 atmosphere. After 96-hour incubation, cells were fixed with 10% trichloroacetic acid (“TCA”), incubated for 1 hour at 4° C., and washed 3 times with tap water. Subsequently, cells were stained with 0.4% sulforhodamine B in 1% acetic acid for 30 minutes, washed 4 times with 1% acetic acid, and air-dried again. After 5 minutes agitation in 10 mM Tris solution, the absorbance of each well was measured at 530 nm using Benchmark Plus Microplate reader (Bio-Rad Laboratories, Hercules, Calif.).
(§4) To translate the OD530 values into the number of live cells in each well, the OD530 values were compared to those on standard OD530-versus-cell number curves generated for each cell line. The percent survival was calculated using the formula: % Survival=live cell number [test]/live cell number [control]×100
(§5) The IC50 values were calculated by non-linear regression analysis.

Row | Structure (SMILES) | IC50
1 | Cc1ccc2c(N)nc(-c3ccccc3F)cc2c1 [Compound 33, 3-(2-Fluorophenyl)-6-methylisoquinolin-1-amine] | 1.59 µM
2 | COc1ccccc1-c1cc2cc(C)ccc2c(N)n1 [Compound 24, 3-(2-Methoxyphenyl)-6-methylisoquinolin-1-amine] | 0.93 µM
3 | COc1ccc(-c2cc3cc(C)ccc3c(N)n2)cc1 [Compound 26, 3-(4-Methoxyphenyl)-6-methylisoquinolin-1-amine] | 2.27 µM

Stronger by IC50, values ahead:

Row | IC50 | Structure (SMILES)
4 | 0.69 µM | Cc1cccc(-c2cc3ccc(C)cc3c(N)n2)c1 [Compound 49, 7-Methyl-3-m-tolylisoquinolin-1-amine]
5 | 0.54 µM | COc1cc2cc(-c3c(C)cccc3C)nc(N)c2cc1OC [Compound 53, 6,7-Dimethoxy-3-(2,6-dimethylphenyl)isoquinolin-1-amine]

tested on: Caki-1 (kidney); experiment: In vitro cell proliferation assay (SRB), Caki-1; assay type: cell-based; conditions: Homo sapiens, SRB method, 96 hours, read-out: Inhibition of cell growth (IC50, μM) Caki-1
Method: as §1, §2, §3, §4, §5

Row | Structure (SMILES) | IC50
6 | Cc1ccc2c(N)nc(-c3ccccc3F)cc2c1 [Compound 33, 3-(2-Fluorophenyl)-6-methylisoquinolin-1-amine] | 0.46 µM
7 | Cc1cccc(-c2cc3ccc(C)cc3c(N)n2)c1 [Compound 49, 7-Methyl-3-m-tolylisoquinolin-1-amine] | 0.44 µM
8 | COc1ccccc1-c1cc2cc(C)ccc2c(N)n1 [Compound 24, 3-(2-Methoxyphenyl)-6-methylisoquinolin-1-amine] | 0.35 µM
9 | COc1ccc(-c2cc3cc(C)ccc3c(N)n2)cc1 [Compound 26, 3-(4-Methoxyphenyl)-6-methylisoquinolin-1-amine] | 0.75 µM
10 | COc1cc2cc(-c3c(C)cccc3C)nc(N)c2cc1OC [Compound 53, 6,7-Dimethoxy-3-(2,6-dimethylphenyl)isoquinolin-1-amine] | 0.53 µM

tested on: MDA-MB-231 (breast); experiment: In vitro cell proliferation assay (SRB), MDA-MB-231; assay type: cell-based; conditions: Homo sapiens, SRB method, 96 hours, read-out: Inhibition of cell growth (IC50, μM) MDA-MB-231
Method: as §1, §2, §3, §4, §5

Row | Structure (SMILES) | IC50
11 | Cc1ccc2c(N)nc(-c3ccccc3F)cc2c1 [Compound 33, 3-(2-Fluorophenyl)-6-methylisoquinolin-1-amine] | 0.55 µM
12 | COc1ccccc1-c1cc2cc(C)ccc2c(N)n1 [Compound 24, 3-(2-Methoxyphenyl)-6-methylisoquinolin-1-amine] | 0.44 µM
13 | COc1ccc(-c2cc3cc(C)ccc3c(N)n2)cc1 [Compound 26, 3-(4-Methoxyphenyl)-6-methylisoquinolin-1-amine] | 0.93 µM

Results, then the molecule that gave them:

Row | IC50 | Structure (SMILES)
14 | 0.21 µM | Cc1cccc(-c2cc3ccc(C)cc3c(N)n2)c1 [Compound 49, 7-Methyl-3-m-tolylisoquinolin-1-amine]
15 | 0.25 µM | COc1cc2cc(-c3c(C)cccc3C)nc(N)c2cc1OC [Compound 53, 6,7-Dimethoxy-3-(2,6-dimethylphenyl)isoquinolin-1-amine]

tested on: HCT116 (colon); experiment: In vitro cell proliferation assay (SRB), HCT116; assay type: cell-based; conditions: Homo sapiens, HCT-116; SRB method, 96 hours; Table 3; read-out: Inhibition of cell growth (IC50, μM) HCT116
Method: as §1, §2, §3, §4, §5

Row | Structure (SMILES) | IC50
16 | Cc1ccc2c(N)nc(-c3ccccc3F)cc2c1 [Compound 33, 3-(2-Fluorophenyl)-6-methylisoquinolin-1-amine] | 0.7 µM
17 | COc1ccccc1-c1cc2cc(C)ccc2c(N)n1 [Compound 24, 3-(2-Methoxyphenyl)-6-methylisoquinolin-1-amine] | 0.67 µM
18 | COc1ccc(-c2cc3cc(C)ccc3c(N)n2)cc1 [Compound 26, 3-(4-Methoxyphenyl)-6-methylisoquinolin-1-amine] | 1.36 µM

Further lines, results first:

Row | IC50 | Structure (SMILES)
19 | 0.28 µM | Cc1cccc(-c2cc3ccc(C)cc3c(N)n2)c1 [Compound 49, 7-Methyl-3-m-tolylisoquinolin-1-amine]
20 | 0.79 µM | COc1cc2cc(-c3c(C)cccc3C)nc(N)c2cc1OC [Compound 53, 6,7-Dimethoxy-3-(2,6-dimethylphenyl)isoquinolin-1-amine]

tested on: PC3 (prostate); experiment: In vitro cell proliferation assay (SRB), PC3; assay type: cell-based; conditions: Homo sapiens; SRB method, 96 hours; read-out: Inhibition of cell growth (IC50, μM) PC3
Method: as §1, §2, §3, §4, §5

Row | Structure (SMILES) | IC50
21 | Cc1ccc2c(N)nc(-c3ccccc3F)cc2c1 [Compound 33, 3-(2-Fluorophenyl)-6-methylisoquinolin-1-amine] | 1.84 µM
22 | COc1ccccc1-c1cc2cc(C)ccc2c(N)n1 [Compound 24, 3-(2-Methoxyphenyl)-6-methylisoquinolin-1-amine] | > 3 µM
23 | COc1ccc(-c2cc3cc(C)ccc3c(N)n2)cc1 [Compound 26, 3-(4-Methoxyphenyl)-6-methylisoquinolin-1-amine] | 2.98 µM

Further lines, results first:

Row | IC50 | Structure (SMILES)
24 | 0.71 µM | Cc1cccc(-c2cc3ccc(C)cc3c(N)n2)c1 [Compound 49, 7-Methyl-3-m-tolylisoquinolin-1-amine]
25 | 0.68 µM | COc1cc2cc(-c3c(C)cccc3C)nc(N)c2cc1OC [Compound 53, 6,7-Dimethoxy-3-(2,6-dimethylphenyl)isoquinolin-1-amine]

tested on: SK-MEL-28 (melanoma); experiment: In vitro cell proliferation assay (SRB), SK-MEL-28; assay type: cell-based; conditions: Homo sapiens, SRB method, 96 hours, read-out: Inhibition of cell growth (IC50, μM) SK-MEL-28
Method: as §1, §2, §3, §4, §5

Row | Structure (SMILES) | IC50
26 | Cc1ccc2c(N)nc(-c3ccccc3F)cc2c1 [Compound 33, 3-(2-Fluorophenyl)-6-methylisoquinolin-1-amine] | 1.07 µM
27 | COc1ccccc1-c1cc2cc(C)ccc2c(N)n1 [Compound 24, 3-(2-Methoxyphenyl)-6-methylisoquinolin-1-amine] | 0.8 µM
28 | COc1ccc(-c2cc3cc(C)ccc3c(N)n2)cc1 [Compound 26, 3-(4-Methoxyphenyl)-6-methylisoquinolin-1-amine] | 1.8 µM

Now from value to molecule:

Row | IC50 | Structure (SMILES)
29 | 0.5 µM | Cc1cccc(-c2cc3ccc(C)cc3c(N)n2)c1 [Compound 49, 7-Methyl-3-m-tolylisoquinolin-1-amine]
30 | 0.63 µM | COc1cc2cc(-c3c(C)cccc3C)nc(N)c2cc1OC [Compound 53, 6,7-Dimethoxy-3-(2,6-dimethylphenyl)isoquinolin-1-amine]

tested on: OVCAR-3 (ovary); experiment: In vitro cell proliferation assay (SRB), OVCAR3; assay type: cell-based; conditions: Homo sapiens, SRB method, 96 hours, read-out: Inhibition of cell growth (IC50, μM) OVCAR3
Method: as §1, §2, §3, §4, §5

Row | Structure (SMILES) | IC50
31 | Cc1ccc2c(N)nc(-c3ccccc3F)cc2c1 [Compound 33, 3-(2-Fluorophenyl)-6-methylisoquinolin-1-amine] | 0.57 µM
32 | COc1ccccc1-c1cc2cc(C)ccc2c(N)n1 [Compound 24, 3-(2-Methoxyphenyl)-6-methylisoquinolin-1-amine] | 0.49 µM
33 | COc1ccc(-c2cc3cc(C)ccc3c(N)n2)cc1 [Compound 26, 3-(4-Methoxyphenyl)-6-methylisoquinolin-1-amine] | 0.79 µM

Further lines, results first:

Row | IC50 | Structure (SMILES)
34 | 0.29 µM | Cc1cccc(-c2cc3ccc(C)cc3c(N)n2)c1 [Compound 49, 7-Methyl-3-m-tolylisoquinolin-1-amine]
35 | 0.16 µM | COc1cc2cc(-c3c(C)cccc3C)nc(N)c2cc1OC [Compound 53, 6,7-Dimethoxy-3-(2,6-dimethylphenyl)isoquinolin-1-amine]

tested on: SNB-19 (glioblastoma); experiment: In vitro cell proliferation assay (SRB), SNB19; assay type: cell-based; conditions: Homo sapiens, SRB method, 96 hours, read-out: Inhibition of cell growth (IC50, μM) SNB19
Method: as §1, §2, §3, §4, §5

Row | Structure (SMILES) | IC50
36 | Cc1ccc2c(N)nc(-c3ccccc3F)cc2c1 [Compound 33, 3-(2-Fluorophenyl)-6-methylisoquinolin-1-amine] | 1.51 µM
37 | COc1ccccc1-c1cc2cc(C)ccc2c(N)n1 [Compound 24, 3-(2-Methoxyphenyl)-6-methylisoquinolin-1-amine] | 1.13 µM
38 | COc1ccc(-c2cc3cc(C)ccc3c(N)n2)cc1 [Compound 26, 3-(4-Methoxyphenyl)-6-methylisoquinolin-1-amine] | 2.23 µM

Second part, the molecule after the results:

Row | IC50 | Structure (SMILES)
39 | 0.53 µM | Cc1cccc(-c2cc3ccc(C)cc3c(N)n2)c1 [Compound 49, 7-Methyl-3-m-tolylisoquinolin-1-amine]
40 | 0.42 µM | COc1cc2cc(-c3c(C)cccc3C)nc(N)c2cc1OC [Compound 53, 6,7-Dimethoxy-3-(2,6-dimethylphenyl)isoquinolin-1-amine]
